Results as given in patent US4918064A, “Phenyl glycines for use in reducing neurotoxic injury” (G. D. Searle & Co., priority 1987, dated 1990).

Key:
KA (kainate) receptor = assay: [3H]kainate receptor binding assay, synaptic plasma membranes; details: [3H]kainate 0.5 nM, 0-4° C., 60 min
Description: Synaptic plasma membranes (SPM) were prepared as previously described [Monahan, J. B. and Michel, J., "Identification and Characterization of an N-methyl-D-aspartate-specific L[^3 H]glutamate Recognition Site in Synaptic Plasma Membranes, J. Neurochem., 48, 1699-1708 (1987)]. The SPM were stored at a concentration of 10-15 mg/ml in 0.32M sucrose, 0.5 mM EDTA, 1 mM MgSO4, 5 mM Tris/SO4, pH 7.4, under liquid nitrogen. The identity and purity of the subcellular fractions were confirmed by both electron microscopy and marker enzymes. Protein concentrations were determined by using a modification of the method of Lowry [Ohnishi, S. T. and Barr, J. K., "A Simplified Method of Quantitating Proteins Using the Biuret and Phenol Reagents", Anal. Biochem., 86, 193-197 (1978)].
The SPM were treated identically for the [^3 H]AMPA (QUIS), [^3 H]kainate and sodium-dependent L-[^3 H]-glumatate binding assays. The SPM were thawed at room temperature, diluted twenty-fold with 50 mM Tris/acetate, pH 7.4, incubated at 37° C. for 30 minutes, and centrifuged at 100,000 g for 15 minutes. The dilution, incubation, and centrifugation was repeated a total of three times.
The basic procedure for the receptor subclass binding assays was similar. This general method involved adding the radioligand (12.5 nM L-[^3 H]glutamate; 0.5 nM [^3 H]kainate or 10 nM [^3 H]AMPA) to the appropriate concentration of the test compound and initiating the assay by the addition of ice cold synaptic plasma membranes (0.2-0.45 mg). The binding assays were performed in 1.5 mL centrifuge tubes with the total volume adjusted to 1.0 mL. .Additions of test compounds were made in 50 mM Tris/acetate, pH 7.4 and incubations were carried out at 0°-4° C. The incubation time for the NMDA and the AMPA binding assays was 10 minutes, for the kainate binding assay 60 minutes and for the sodium-dependent glutamate binding assay 15 minutes. The AMPA binding assay contained 100 mM KSCN and the sodium-dependent glutamate binding assay contained 150 mM sodium acetate in addition to the previously described reagents.
To terminate the incubation, the samples were centrifuged for 15 minutes at 12,000 g and 4° C. in a Beckman Microfuge 12. The supernatant was aspirated and the pelleted membranes dissolved in Beckman BTS-450 tissue solubilizer for a minimum of 6 hours at room temperature. Beckman MP scintillation cocktail containing 7 mL/1 acetic acid was then added and the samples counted on a Beckman LS 5800 or 3801 liquid scintillation counter with automatic corrections for quenching and counting efficiency.
Nonspecific binding was defined as the residual binding in the presence of either excess L-glutamate (0.1-0.4 mM), kainate (0.01 mM), or NMDA (0.5 mM), and was 15-25% of the total binding in the NMDA binding assay, 19-27% in the AMPA binding assay, 20-30% in the kainate binding assay and 10-15% in the sodium-dependent binding assay. Radioligand binding to the synaptic plasma membranes was analyzed using Scatchard and Hill transformations and the Ki values of the compounds determined using logit-log transformations. Calculations and regression analysis were performed using templates developed for Lotus 1, 2, 3 as previously described [Pullan, L. M. "Automated Radioligand Receptor Binding Analysis with Templates for Lotus", Computer Appln. Biosci., 3 131 (1987)]. Binding results are reported in Table II for example compounds of the invention. […]

chick embryo retina = assay: In Vitro Chick Retina Assay (excitotoxic lesions by NMDA or KA); assay type: cell-based; details: vs. NMDA 200 μM, 30 min at 37° C.
Text: [Olney, J. W., Price, M. T., Fuller, T. A., Labruyere, J., Samson, L., Carpenter, M., Mahan, K., "The Anti-Excitotoxic Effects of Certain Anesthetics, Analgesics and Sedative-Hypnotics", Neuroscience Letters, 68, 29-34, (1986)].
Using an approach similar to that earlier described [Reif-Lehrer, L., Bergenthal, J. and Hanninen, L., "Effects of Monosodium Glutamate on Chick Embryo Retina in Culture", Invest. Ophthalmol., 14, 114-12, (1975)], 15-day-old chick embryos were decapitated and their eyes removed and cut into quadrants after excising the cornea and removing the lens, vitreous and iris. The retinal quadrants were then gently separated from the pigment epithelium and incubated for 30 minutes at 37° C. in a standard balanced salt solution (BSS) to which test compounds, either excitatory amino acid agonists or potential antagonists or both, were added in various concentrations. As described elsewhere [Olney, J. W., Price, M. T., Samson, L. and Labruyere, J., "The Role of Specific Ions in Glutamate Neurotoxicity". Neurosci. […]

NC(C(=O)O)c1ccc(CP(=O)(O)O)cc1 (centres unmarked) [Example VI, 4-(Phosphonomethyl)phenylglycine]
Receptor binding, KA (Ki) (KA (kainate) receptor): > 300 µM | concentration for full antagonism against NMDA (complete prevention of toxic activity) (chick embryo retina): 50 µM
